According to patent US20100215759A1 (priority 2009, published 2010):

What was measured:
CB1 receptors = target: T1, CB1 receptors (Mus musculus, UniProt P47746); experiment: biochemical; assay type: binding
T1 construct: the complete brain (excluding the cerebellum) and the spleen were quickly dissected and kept in ice; from tissue; host or cells: mouse brain (excluding cerebellum), membrane preparation
Protocol: (§1) The affinity of the synthesized compounds towards the CB1 and CB2 cannabinoidergic receptors was evaluated in vitro by radioreceptor binding studies using the method reported hereinunder.
(§2) The technique of the receptor binding allows to establish if, and with which affinity and specificity, a specific compound binds to a particular receptor. To evaluate the affinity of a specific compound to a particular receptor it is necessary to challenge in a particular tissue preparation wherein those specific receptors are present the compound to be tested with a radioactive labelled compound whose affinity for the same receptors is known. […] The amount of radioactivity present in the receptor-compound complex allows furthermore to estimate with great accuracy the amount of compound bound to the receptor. By said method it is therefore possible to establish quickly the affinity of a new compound towards a specific receptor and thus to determine its pharmacological activity. With the same experimental protocol it is possible to evaluate the affinity of the compound towards other receptors and thus establish its specificity degree toward said other receptors.
(§3) The food and water were ad libitum.
(§4) The procedure adopted, based on the use of the compound [^3H]-CP-55,940 (New England Nuclear, Boston, Mass., USA), requires the use of the mouse brain as biological tissue for the evaluation of the affinity towards the CB1 receptors and of the mouse spleen for the affinity assay for the CB2 receptors.
(§5) The animals were sacrificed by cervical dislocation and the complete brain (excluding the cerebellum) and the spleen were quickly dissected and kept in ice.
(§6) The tissue was homogenized in 15 volumes (weight/volume) of TME buffer (50 Mm Tris, 1 mM EDTA and 3 mM MgCl2, pH 7.4) by an Ultra-Turrax and subsequently centrifuged for 10 minutes at 1086×g in a centrifuge refrigerated at 4° C. The recovered supernatant was centrifuged at 45,000×g for 30 minutes at 4° C. by using a Beckman SW41 rotor and the obtained pellet was resuspended in 50 volumes of TME.
(§7) The thus obtained membranes (50-80 μg of proteins) were incubated in the presence of 1 nM of [^3H]-CP55.940 for 1 hour at 30° C. in a final volume of 0.5 ml of TME buffer containing 5 mg/ml of bovine serum albumin (BSA). The non specific binding was measured in the presence of CP55.940 at a 1 μM concentration.
(§8) All the experiments were carried out in polypropylene test tubes pretreated with Sigma-Cote (Sigma Chemical Co. Ltd., Poole, UK) for reducing non specific binding.
(§9) In order to determine the competitive inhibition binding curves, eight different concentrations of each compound were used.
(§10) Incubation was stopped by addition of TME buffer (at 4° C.) containing 5 mg/ml of BSA, and subsequent filtration under vacuum by Whatman GFC filters pretreated with 0.5% of polyethylamine (PEI) and by using a filtering device (Brandell, Gaithersburg, Md., USA). The filters were washed 3 times with […] of Tris HCl buffer (pH 7.4, 4° C.) containing 1 mg/ml of BSA and separately placed in plastic vials containing 4 ml of scintillating liquid (Ultima Gold MV, Packard).
(§11) The radioactivity present in the filters was determined by a scintillator spectrophotometer (Tricarb® 2100, Packard, Meridien, USA).
(§12) Protein determination was carried out by the Bradford method by using the protocol and the reactants supplied by Bio-Rad (Milano, Italy).

CB2 receptors = target: T2, CB2 receptors (Mus musculus, UniProt P47936); experiment: biochemical; assay type: binding
T2 construct: the complete brain (excluding the cerebellum) and the spleen were quickly dissected and kept in ice; from tissue; host or cells: mouse spleen, membrane preparation
T2 sequence (P47936 whole entry): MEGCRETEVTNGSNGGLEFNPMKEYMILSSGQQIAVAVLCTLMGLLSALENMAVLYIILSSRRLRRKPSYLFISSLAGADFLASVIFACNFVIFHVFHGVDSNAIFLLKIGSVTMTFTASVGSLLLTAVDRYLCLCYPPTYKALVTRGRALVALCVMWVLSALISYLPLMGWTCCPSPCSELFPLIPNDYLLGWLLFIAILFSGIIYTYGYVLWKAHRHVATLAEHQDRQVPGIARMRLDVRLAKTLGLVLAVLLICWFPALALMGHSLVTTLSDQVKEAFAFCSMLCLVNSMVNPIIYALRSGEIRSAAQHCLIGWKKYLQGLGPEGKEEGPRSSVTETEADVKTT
Protocol: as §1, §2, §3, §4, §5, §6, §7, §8, §9, §10, §11, §12

old DBA/2J mice = experiment: Reduction of intraocular pressure (IOP) after application to the eye, TONOLab tonometer; assay type: in vivo; settings: for Intraocular Pressure Decrease: versus basal IOP; for Reduction of intraocular pressure: dose 100 μg
Text: The main risk factor in the glaucoma is represented by the high intraocular pressure (IOP). See for instance: Libby R. T. et al., Vis Neurosci. 2005 Sep.-Oct., 22(5):637-48 and Tomida I. et al., Br. J. Opthalmol. 2004 May, 88(5):708-13.
By using the animal model of old DBA/2J mice (see above) it has been evaluated the efficacy of the compound obtained in example 3.1 in reducing the IOP. As said, this compound has a good affinity towards the CB1 receptors in vitro (example 4) and a CB1 agonist action in vivo (example 5). The intraocular pressure has been determined by a TONOLab Tonometer (Tiolat Oy), as reported by M. E. Pease et al. in J. Glaucoma, 2006 December, 15(6):512-519. The compound was dispersed in the commercial emulsion Tocrisolve™, (Tocris), at a concentration of […] and applied to the eye of old DBA/2J mice (8-10 month age; basal IOP comprised between 19.0 and 22.5 mmHg). The applied emulsion volumes were such that the compound doses resulted, respectively, of 100 μg or 50 μg. WIN 55212-2 was dispersed in Tocrisolve™at the concentration of 5 mg/ml and was the reference cannabinoidergic compound. The determination of the ocular pressure was carried out every 30 minutes up to two hours starting from the administration. The obtained results (average of 6 measurements at each time for experimental groups of 8-10 animals for group/dose) are reported in Table 3. IOP decrease was expressed in percent with respect to the basal value.

[1] = test system: mouse deferent vessel (vas deferens); experiment: Ex-vivo model: electrically induced contractions of the isolated deferent vessel (vas deferens); set-up: species or system albino CD1 mice; settings: for Activity compared with the compounds of the invention: FIG. 2; for Inhibition of the contractions induced by the electric stimulus: concentrations lower than or equal to 1×10^−6 M
Text: The use of the isolated deferent vessel organ, as a highly sensitive basic system in an ex-vivo model for evaluating the activity of agonist CB1 compounds, has been described by Pertwee et al. in Br. J. Pharmacol., 105:980-4, 1992. This model has been used also to evaluate the properties of antagonist CB1 compounds and to distinguish antagonist CB1 derivatives from inverse agonist CB1 compounds (Rinaldi-Carmona et al., FEBS Lett., 350:240-4, 1994; Pertwee et al., Eur. J. Pharmacol., 456:99-106, 2002). […] This effect is correlated to the action on the prejunctional neuronal CB1 receptors with the consequent release inhibition, induced by electric stimuli, of contractile neurotransmitters (noradrenaline and ATP) (Schlicker and Kathmann, Trends Pharmacol. Sci., 22:565-72, 2001). The inhibition of the contractions induced by the electric stimulus on the deferent vessel in the presence of agonist (or partial agonist) CB1 compounds are expressed as % of contraction inhibition. Said % contraction inhibition is calculated by the ratio between the contraction amplitude determined in the presence of a given concentration of the compound and that detected in its absence (basal value). The curve of the “% of contraction inhibition” as a function of the logarithm of the concentration of agonist (or partial agonist) CB1 compounds, is sigmoidal. The use of the model for the evaluation of antagonist CB1 compounds is based on the evaluation of their efficacy in inhibiting the action of the deferent vessel of agonist (or partial agonist) CB1 compounds. The inhibition is expressed by a shifting towards the right of the curves % of inhibition of contractions/logarithm of the concentration of the agonist CB1 compound, with increasing the concentration of the antagonist CB1 compound.
As reported in the literature, the experimentation has been carried out by using albino CD1 mice weighing 30-40 grams. The mice deferent vessel was recovered and transferred into an instrument for separated organs supplied by the Firm Ugo Basile (Comerio, Italy). The initial tension was of 0.5 g. The procedure adopted is reported in Pertwee et al. in Br. J. Pharmacol., 110:1483-1490, 1993. In particular the procedure and instruments as described by S. Ruiu et al. in J.P.E.T., Vol. 306, 2003, 363-370, have been used.
In a subsequent experiment it was shown that the compound activity was antagonized by the antagonist CB1 compound N-piperidinyl-[8-chloro-1-(2,4-dichlorophenyl)-1,4,5,6-tetrahydrobenzo[6,7]cyclohepta[1,2-c]pyrazol-3-carboxamide], described by S. Ruiu et al. in J.P.E.T., Vol. 306, 2003, 363-370. The experiment was carried out by adding the antagonist (concentration in bath 1 nM) 20 minutes before the first addition of the compound of the invention.

patients = settings: cited from earlier work
[2] = 50 μg to the eye in Tocrisolve, 30 minutes
[3] = 50 μg to the eye in Tocrisolve, 60 minutes
[4] = 50 μg to the eye in Tocrisolve, 90 minutes
[5] = 50 μg to the eye in Tocrisolve, 120 minutes
[6] = 100 μg to the eye in Tocrisolve, 30 minutes
[7] = 100 μg to the eye in Tocrisolve, 60 minutes
[8] = 100 μg to the eye in Tocrisolve, 90 minutes
[9] = 100 μg to the eye in Tocrisolve, 120 minutes

T1 sequence (P47746 whole entry): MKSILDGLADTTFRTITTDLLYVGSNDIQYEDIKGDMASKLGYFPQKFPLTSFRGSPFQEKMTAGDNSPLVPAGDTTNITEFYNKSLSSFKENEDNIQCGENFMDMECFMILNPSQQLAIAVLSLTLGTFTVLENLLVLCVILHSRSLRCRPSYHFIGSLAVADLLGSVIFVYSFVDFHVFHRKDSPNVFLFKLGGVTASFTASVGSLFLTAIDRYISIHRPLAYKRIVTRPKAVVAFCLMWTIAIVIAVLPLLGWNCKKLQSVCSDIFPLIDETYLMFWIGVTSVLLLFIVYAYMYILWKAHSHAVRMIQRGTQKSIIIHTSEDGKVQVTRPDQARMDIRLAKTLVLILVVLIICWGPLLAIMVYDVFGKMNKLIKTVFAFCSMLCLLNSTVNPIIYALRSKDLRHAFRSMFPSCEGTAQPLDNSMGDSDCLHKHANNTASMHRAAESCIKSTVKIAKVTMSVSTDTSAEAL

SMILES: Cc1ccc(Cn2nc(C(=O)NC3CC(C)CCC3C(C)C)c3c2-c2sc(C)cc2C3)cc1 (centres unmarked) [Compound (XC), N-menthyl-6-methyl-1-(4′-methylbenzyl)-1,4-dihydro-thieno[3′,2′:4,5]cyclopenta[1,2-c]pyrazol-3-carboxamide]
- Ki (CB1 receptors): 33 ± 8.2 nM
- Ki (CB2 receptors): 2.5 ± 0.3 nM
- Intraocular Pressure Decrease (old DBA/2J mice; [2]): 2.9%
- Intraocular Pressure Decrease (old DBA/2J mice; [3]): 2.2%
- Intraocular Pressure Decrease (old DBA/2J mice; [4]): 0.8%
- Intraocular Pressure Decrease (old DBA/2J mice; [5]): 1.5%
- Intraocular Pressure Decrease (old DBA/2J mice; [6]): 22.2%
- Intraocular Pressure Decrease (old DBA/2J mice; [7]): 22.4%
- Intraocular Pressure Decrease (old DBA/2J mice; [8]): 25.0%
- Intraocular Pressure Decrease (old DBA/2J mice; [9]): 16.7%
- Reduction of intraocular pressure (old DBA/2J mice): able to significantly reduce the intraocular pressure
- Activity compared with the compounds of the invention [1]: lower than that of the compounds of the invention
- Inhibition of the contractions induced by the electric stimulus [1]: able to significantly inhibit the contractions

SMILES: Cc1cc2c(s1)-c1c(c(C(=O)NC3C4(C)CCC(C4)C3(C)C)nn1-c1ccc(Cl)cc1Cl)C2 (centres unmarked) [Compound (XD), N-fenchyl-1-(2′,4′-dichlorophenyl)-6-methyl-1,4-dihydro-thieno[3′,2′:4,5]cyclopenta[1,2-c]pyrazol-3-carboxamide]
- Ki (CB1 receptors): 43.3 ± 5.5 nM
- Ki (CB2 receptors): 15 ± 3.2 nM
- Intraocular Pressure Decrease (old DBA/2J mice; [2]): 3.0%
- Intraocular Pressure Decrease (old DBA/2J mice; [3]): 2.0%
- Intraocular Pressure Decrease (old DBA/2J mice; [4]): 0.5%
- Intraocular Pressure Decrease (old DBA/2J mice; [5]): 1.0%
- Intraocular Pressure Decrease (old DBA/2J mice; [6]): 16.6%
- Intraocular Pressure Decrease (old DBA/2J mice; [7]): 14.0%
- Intraocular Pressure Decrease (old DBA/2J mice; [8]): 11.2%
- Intraocular Pressure Decrease (old DBA/2J mice; [9]): 11.1%
- Reduction of intraocular pressure (old DBA/2J mice): able to significantly reduce the intraocular pressure
- Activity compared with the compounds of the invention [1]: lower than that of the compounds of the invention
- Inhibition of the contractions induced by the electric stimulus [1]: able to significantly inhibit the contractions

SMILES: Cc1cc2c(s1)-c1c(c(C(=O)NCC3CCC4CC3C4(C)C)nn1-c1ccc(F)cc1F)C2 (centres unmarked) [Example 3.2, N-myrtanyl-1-(2′,4′-difluorophenyl)-6-methyl-1,4-dihydrothieno[3′,2′:4,5]cyclopenta[1,2-c]pyrazol-3-carboxamide]
- Ki (CB1 receptors): 22.3 ± 25 nM
- Ki (CB2 receptors): 5.8 ± 1 nM

SMILES: CC1(C)C2CCC(CNC(=O)c3nn(-c4ccc(Cl)cc4Cl)c4c3CCc3sc(-c5ccccc5)cc3-4)C1C2 (centres unmarked) [Example 3.6, N-myrtanyl-1-(2′,4′-dichlorophenyl)-7-phenyl-4,5-dihydro-1H-thieno[2,3-g]indazol-3-carboxamide]
- Ki (CB1 receptors): 86.4 ± 20 nM
- Ki (CB2 receptors): 4350 ± 251 nM

SMILES: Cc1csc2c1Cc1c(C(=O)NCC3CCC4CC3C4(C)C)nn(-c3ccc(Cl)cc3Cl)c1-2 (centres unmarked) [Example 3.7, N-myrtanyl-5-methyl-1-(2′,4′-dichlorophenyl)-1,4-dihydro-thieno[3′,2′:4,5]cyclopenta[1,2-c]pyrazol-3-carboxamide]
- Ki (CB1 receptors): 919 ± 226 nM
- Ki (CB2 receptors): 4.5 ± 0.8 nM
- melting point: 112 to 113 °C

SMILES: Cc1cc2c(s1)-c1c(c(C(=O)NCC3CCC4CC3C4(C)C)nn1-c1ccc(Cl)cc1Cl)C2 (centres unmarked) [Example 3.8, N-myrtanyl-1-(2′,4′-dichlorophenyl)-6-methyl-1,4-dihydro-thieno[3′,2′:4,5]cyclopenta[1,2-c]pyrazole-3-carboxamide]
- Ki (CB1 receptors): 400 ± 71 nM
- Ki (CB2 receptors): 30.6 ± 7.2 nM

SMILES: CC1(C)C2CCC(CNC(=O)c3nn(-c4ccc(F)cc4F)c4c3Cc3cc(Br)sc3-4)C1C2 (centres unmarked) [Example 3.12, N-myrtanyl-6-bromo-1-(2′,4′-difluorophenyl)-1,4-dihydro-thieno[3′,2′:4,5]cyclopenta[1,2-c]pyrazole-3-carboxamide]
- Ki (CB1 receptors): 160 ± 2.5 nM
- Ki (CB2 receptors): 9.3 ± 1.5 nM

SMILES: Cc1cc2c(s1)-c1c(c(C(=O)CC3CCCCC3)nn1-c1ccc(Cl)cc1Cl)C2 [Example 3.15, 1-(2′,4′-dichlorophenyl)-6-methyl-3-(1-oxo-2-cyclohexyleth-1-yl)-1,4-dihydro-thieno[3′,2′:4,5]cyclopenta[1,2-c]pyrazole]
- Ki (CB1 receptors): 720 ± 139 nM
- Ki (CB2 receptors): 5.4 ± 1.4 nM

SMILES: Cc1c(C(=O)NN2CCCCC2)nn(-c2ccc(Cl)cc2Cl)c1-c1ccc(Cl)cc1 [SR141716A]
- Reduction of weight and metabolic and/or cardiovascular risk factors (patients; patients with metabolic syndrome and/or dyslipidemia): effective in reducing both weight and metabolic and/or cardiovascular risk factors
- Reduction of metabolic and/or cardiovascular risk factors (patients; patients with type 2 diabetes): effectiveness of Rimonabant in reducing metabolic and/or cardiovascular risk factors has been shown
